Results as given in US20100184031A1, “NOVEL ADIPOCYTOKINE VISFATIN/PBEF1 IS AN APOPTOSIS ASSOCIATED FACTOR INDUCED IN MONOCYTES DURING IN VIVO HIV-1 INFECTION” (priority 2007, published 2010).

Assays:
[1] = tested on: M-tropic R5 HIV lab-strain BaL; test: In vitro infection of PBMC cultures with HIV BaL, p24 ELISA / TCID50; type: cell-based
[2] = tested on: M-tropic R5 HIV lab-strain BaL; test: In vitro infection of monocyte-derived macrophages (MDM) with HIV BaL, p24 ELISA / TCID50; type: cell-based; conditions: MDM cultures
Source text: (§1) For in vitro infection experiments, monocytes were obtained from buffy coats of healthy donors of the Blood Transfusion Center of Antwerp (Rode Kruis Vlaanderen, Belgium) by counterflow elutriation, as described previously (Van Herrewege et al., 2002). These cells were then differentiated to monocyte-derived macrophages (MDM) during seven days in RPMI 1640 medium (Bio-Whittaker, Verviers, Belgium) supplemented with 10% bovine fetal calf serum (Biochrom, Berlin, Germany), penicillin (100 U/ml) and streptomycin (100 μg/ml) (Roche Diagnostics, Mannheim, Germany) and 40 ng/ml M-CSF (PeproTech, London, United Kingdom) at 37° C. and 5.0% CO2. Half the medium was replaced after four days. Cells were then harvested and used for experiments in the same medium (without M-CSF).
(§2) For infection experiments, MDM were plated in 96-well plates at 7.5×10^5 cells/ml and pre-treated with recombinant visfatin (200 ng/ml) for 1 hour at 37° C. and 5.0% CO2. Then, virus was added in six-fold and incubated for 2 hours, again at 37° C. and 5.0% CO2. Cells were then washed 3× to remove unbound virus and incubated for 14 days. Productive infection was monitored via an in-house-developed p24 antigen ELISA, as described elsewhere (Beirnaert et al., 1998).
This viral infectivity can be quantified by calculating the TCID50 (Tissue Culture Infectious Dose 50%, i.e., the dose of virus that has a 50% chance of infecting a cell culture) values of the viral stocks. Addition of visfatin reduces the TCID50 values of BaL by approximately one log in both PBMC and MDM cultures, signifying a 90% reduction in viral infectivity (FIG. 7, Panel A).

[3] = tested on: T-tropic X4 HIV lab-strain IIIB (=HxB2); test: In vitro infection with X4 HIV lab-strain IIIB, viral infectivity (TCID50); type: cell-based; conditions: same experiment as for BaL
Description: as §2
This signifies that by selectively inhibiting R5 and not X4 HIV, visfatin contributes to the HIV co-receptor switch seen in ca. 50% of all patients in which the co-receptor usage of the dominant quasispecies within the patient switches from the moderately virulent R5 to the more aggressive X4, leading to increased progression to AIDS.

[4] = tested on: X4 strain of the 968 clone (968-1); test: In vitro infection of MDM with clinical isolate 968-1 (X4), viral titer (TCID50); type: cell-based, HIV
Source text: as §1, §2
R5 and X4 strains of the 968 viral clone were isolated from one patient, and differ only in co-receptor usage.

[5] = PBMC cultures, 200 ng/ml PBEF1, 14 days of culture
[6] = 200 ng/ml PBEF1, 14 days of culture

Compound | infectivity of HIVBaL (TCID50) ([1]; PBMC cultures, 100 μM nicotinamide mononucleotide, 14 days of culture) | reduction in viral infectivity [1, 5] [%] | reduction of TCID50 value of BaL [1, 5] | viral infectivity (productive infection, p24 secretion) ([1]; activated PBMC cultures, recombinant visfatin added prior to infection with BaL) | reduction in viral infectivity [2, 6] [%] | reduction of TCID50 value of BaL [2, 6] | viral infectivity (productive infection, p24 secretion) ([2]; recombinant visfatin (200 ng/ml) added prior to infection with BaL) | effect on viral infectivity of X4 strain IIIB [3] | viral titer of X4 clinical isolate in MDM [4, 6] | productive infection of MDM by X4 clinical isolate 968-1 ([4]; strain incapable of infecting untreated MDM)
NC(=O)c1ccc[n+]([C@@H]2O[C@H](COP(=O)([O-])O)[C@@H](O)[C@H]2O)c1 [NMN, nicotinamide mononucleotide, reference compound] | reduces the infectivity | – | – | – | – | – | – | – | – | –
visfatin: Recombinant visfatin (PBEF1, nicotinamide phosphoribosyltransferase) protein obtained from PeproTech | – | 90 | approximately one | decreases the viral infectivity | 90 | approximately one | decreases the viral infectivity | does not mediate this effect | increased the viral titer | allowed the 968-1 clone to establish a productive infection
